Tested on: croton oil-induced ear edema
Experiment: Croton oil-induced ear edema in mice
Assay type: in vivo, Balb/c mice
Details: dexamethasone 1 mg/kg, 1 2 mg/kg
Excerpt: The presents study aims to detect the inflammatory/anti-inflammatory potential effects of compound 1 in a model of acute skin inflammation induced by local application of phlogistic agent croton oil in Balb/c mice. The technique for croton oil-induced ear edema in mice, originally described by Tubaro et al., was followed, with modifications; see literature references 16 and 17: • 16) A. Tubaro, P. Dri, G. Delbello, C. Zilli, R. Della Loggia: The croton oil ear test revisited, Agents Actions 17 (1986) 347-349. • 17) G. Coruzzi, C. Pozzoli, M. Adami, D. Grandi, N. Guido, R. Smits, I. de Esch and R. Leurs: Strain-dependent effects of the histamine H4 receptor antagonist JNJ7777120 in a murine model of acute skin inflammation, Experimental Dermatology 21 (2011) 32-37.
Mice (total 40) were separated into 4 groups (n=10). Each group was treated under different regimen:
Cutaneous inflammation was induced in conscious mice by topical application of croton oil (5% in acetone).
Six hours after croton oil application, mice were euthanized by light ether anaesthesia, followed by cervical dislocation; both left (acetone) and right (croton oil in acetone) ears were removed, by cutting horizontally across the indentation at the base of the ear. For each mouse, the extent of the oedema was expressed as the difference in weight (Δ [mg]) between right (inflamed) and left (uninflamed) ear. The percentage increase in the oedema of the treated ear was calculated by the following formula: […]
The presents study aims to detect the inflammatory/anti-inflammatory potential effects of compound 1 in a model of acute skin inflammation induced by local application of phlogistic agent croton oil in Balb/c mice. The technique for croton oil-induced ear edema in mice, originally described by Tubaro et al., was followed, with modifications; see literature references 16 and 17.
In preliminary experiments, the effect of subcutaneous (s.c.) administration of saline, 100% DMSO or 20% 2-hydroxypropyl-β-cyclodextrin was investigated to check the vehicle effects on ear inflammation.
The statistical significance between the groups was assessed by one-way analysis of variance (ANOVA) followed by a post hoc Tukey test. The accepted level of significance for the test was P<0.05. All tests were carried out using GraphPad Software (San Diego, Calif., USA).

O=c1oc2cc(O)cc(O)c2c(O)c1-c1coc2c1c(=O)oc1cc(O)cc(O)c12 [Compound 1, 7,9-dihydroxy-3-(4,5,7-trihydroxy-2-oxo-2H-chromene-3-yl)-4H-furo[3,2-c]chromen-4-one]
Ear edema Δm (right minus left ear) (6 h after croton oil): 0.0321 g | Percentage of increasing the ear edema (6 h after croton oil): 92.98% | Maximal inhibition of croton oil-induced ear oedema (Balb/c mice, 6 h): ~40% | Left ear m (left ear: 80% 2HPβCD + 20% DMSO (uninflamed), 6 h): 0.0344 g | Right ear m (right ear: substance + croton oil after 30 min, 6 h): 0.0665 g

Reference: patent publication US20210113522A1, “COUMARIN DERIVATIVE AS ANTI-ASTHMATIC AGENT, PHARMACEUTICAL COMPOSITION THEREOF, ITS PREPARATION AND USE” (I-NOVA MEDICINSKA ISTRAZIVANJA D.O.O., priority 2017, published 2021)
